US11639360B2, “Oxazine compound and application thereof” (DALIAN UNIVERSITY OF TECHNOLOGY, priority 2018, dated 2023)

Experiments:
[1] = Spectral test experiment (UV-vis spectrophotometer and fluorescence spectrometer); format: physicochemical; details: in dichloromethane
Experimental: The compound F-1 synthesized in Embodiment 1 was used, and F-1-DMSO solution was added into dichloromethane and mixed evenly. Spectral properties of the compound F-1 were tested by a UV-vis spectrophotometer and a fluorescence spectrometer. The results are shown in FIG. 2, wherein the F-1 molecules have the maximum absorption and the maximum emission at 680 nanometers and 700 nanometers in the dichloromethane respectively.
The compound F-2 synthesized in Embodiment 6 was used, and F-2-DMSO solution was added into dichloromethane and mixed evenly. Spectral properties of the […] were tested by a UV-vis spectrophotometer and a fluorescence spectrometer. The results are shown in FIG. 6, wherein the F-2 molecules have the maximum absorption and the maximum emission at 686 nanometers and 712 nanometers in the dichloromethane are respectively.
The compound F-3 synthesized in Embodiment 11 was used, and F-3-DMSO solution was added into dichloromethane and mixed evenly. Spectral properties of the […] were tested by a UV-vis spectrophotometer and a fluorescence spectrometer. The results are shown in FIG. 10, wherein the F-3 molecules have the maximum absorption and the maximum emission at 697 nanometers and 740 nanometers in the dichloromethane.

[2] = tested on: MCF-7 (human breast cancer cell); assay: In vitro cell anti-cancer test under illumination (MTT); format: cell-based; details: MTT cell survival rate; for killing effect on the cells under illumination: MCF-7, 30 minutes incubation, red light 660 nanometers; for killing effect on the cells without illumination: MCF-7, no illumination
Experimental: MCF-7 (human breast cancer cell) was planted in 96-well culture plates at a density of 5000 cells per well and cultured in a cell incubator for 24 hours (37° C., 5% CO2). The compound F-1 synthesized in Embodiment 1 was used, and F-1-DMSO solution was added into DMEM containing 10% fetal calf serum to prepare solutions with different concentrations, and the prepared solutions were added to the 96-well culture plates and placed in a cell incubator to incubate for 30 minutes, and then irradiated for a certain period by red light with a wavelength of 660 nanometers. After irradiation, 96 empty plates were placed in a cell incubator and continuously incubated for 12 hours. Then, 100 μl of culture medium containing 5 mg/ml MTT was added to each well, and incubated in a cell incubator for 4 hours. The culture solutions in the well of the plates were removed, 100 µl of DMSO was added to each well to fully dissolve MTT oxidation products, and then the absorbance of each well at 570 nanometers and 630 nanometers were measured with a microplate reader, and a cell survival rate was calculated.
MCF-7 (human breast cancer cell) was planted in 96-well culture plates at a density of 5000 cells per well and cultured in a cell incubator for 24 hours (37° C., 5% CO2). The compound F-2 synthesized in Embodiment 6 was used, and F-2-DMSO solution was added into DMEM containing 10% fetal calf serum to prepare solutions with different concentrations, and the prepared solutions were added to the 96-well culture plates and placed in the cell incubator to incubate for 30 minutes, and then irradiated for a certain period by red light with a wavelength of 660 nanometers. After irradiation, 96 empty plates were placed in a cell incubator and continuously incubated for 12 hours. Then, 100 μl of culture medium containing 5 mg/ml MTT was added to each well, and incubated in a cell incubator for 4 hours. The culture solutions in the well of the plates were removed, 100 µl of DMSO was added to each well to fully dissolve MTT oxidation products, and then the absorbance of each well at 570 nanometers and 630 nanometers were measured with a microplate reader, and a cell survival rate was calculated.
MCF-7 (human breast cancer cell) was planted in 96-well culture plates at a density of 5000 cells per well and cultured in a cell incubator for 24 hours (37° C., 5% CO2). The compound F-3 synthesized in Embodiment 11 was used, and […] was added into DMEM containing 10% fetal calf serum to prepare solutions with different concentrations, and the prepared solutions were added to the 96-well culture plates and placed in the cell incubator to incubate for 30 minutes, and then irradiated for a certain period by red light with a wavelength of 660 nanometers. After irradiation, 96 empty plates were placed in a cell incubator and continuously incubated for 12 hours. Then, 100 μl of culture medium containing 5 mg/ml MTT was added to each well, and incubated in a cell incubator for 4 hours. The culture solutions in the well of the plates were removed, 100 μl of DMSO was added to each well to fully dissolve MTT oxidation products, and then the absorbance of each well at 570 nanometers and 630 nanometers were measured with a microplate reader, and a cell survival rate was calculated.

[3] = Self-assembled nano drug-delivery system, scanning electron microscope; format: physicochemical; details: self-assembled in PBS or ultrapure water
Experimental: The compound F-1 synthesized in Embodiment 1 was used, and a proper amount of F-1-DMSO solution was added into a phosphate buffer (PBS) or ultrapure water as required. After shaking the mixture evenly, the compound F-1 could be self-assembled in the PBS or ultrapure water to form a nanoparticle system. It can be seen from FIG. 14 that the nanoparticles formed by the self-assembly of the compound F-1 in the nano-system are about 200 nanometers in size, regular in shape and uniform in size, and have excellent dispersion properties.

SMILES	maximum absorption [1] [nanometers]	maximum emission [1] [nanometers]	killing effect on the cells under illumination [2]	killing effect on the cells without illumination [2]	size of nanoparticles formed by self-assembly [3]
CC/N=c1/cc2[se]c3c4c5c(cc3nc-2c2ccccc12)CCCN5CCC4 [Compound F-2]	686	712	obvious killing effect on the cells at low energy density of illumination	very small killing effect on the cells without illumination, and has almost no toxicity	
CC/N=c1/cc2[te]c3c4c5c(cc3nc-2c2ccccc12)CCCN5CCC4 [Compound F-3]	697	740	obvious killing effect on the cells at low energy density of illumination	a certain killing effect on the cells without illumination	
CC/N=c1/cc2sc3c4c5c(cc3nc-2c2ccccc12)CCCN5CCC4 [Compound F-1]	680	700	obvious killing effect on the cells	very small killing effect on the cells without illumination, and has almost no toxicity	about 200 nanometers
